Laboratory results as given in paper PMC9321663, “The DevTox Germ Layer Reporter Platform: An Assay Adaptation of the Human Pluripotent Stem Cell Test” (Toxics, 2022).
Like-named read-outs stand apart in the source and are kept apart here. Starred links: 1 amine or outer side, 2 acyl side, 3 side chain; linkers in the order of their positions; H or OH if unused. Positions of bridges follow the written chain, without caps; N, C: chain ends. Non-standard residues stand in square brackets, D forms with d. Residues, ends and D or L forms follow the SMILES beside them. Chains are numbered I, II in the order given. Actinocin(9to1) = Cc1c2oc3c(C)ccc(C(=O)[*:1])c3nc-2c(C(=O)[*:2])c(N)c1=O; NMeV = CN[C@H](C(=O)O)C(C)C; Sar = CNCC(=O)O

Assays:
[1] = tested on: SOX17 (endoderm marker) in RUES2-GLR cells; assay: DevTox GLR-Endo assay: decrease in percent SOX17-positive cells (AEID 3094, Sox17_dn); settings: for Hit Call: Table S2, SOX17-positive cells, cutoff 3*bmad; for DevTox ACC: Table S2, percent SOX17-positive cells; for HIT−CALL: tcpl plot AEID3094, COFF 20.3
How it was run: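 Readouts are loss of SOX17-positive fraction and reduced cell number in endoderm-differentiating RUES2-GLR cells after 48 h of chemical exposure. Controls: undifferentiated and differentiated cells, 0.2% DMSO, and 1 µM SB431542; at least four biological replicates.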

in vitro = settings: human
RUES2-GLR cells = assay: DevTox GLR-Endo assay: decrease in total cell count, cytotoxicity (AEID 3098, CellCount_dn); settings: for Emax: Homo sapiens, read-out: Cell Count % Max Inhibition
[2] = tested on: SOX17 (endoderm marker) in RUES2-GLR cells; assay: DevTox GLR-Endo assay: increase in percent SOX17-positive cells (AEID 3093, Sox17_up); type: cell-based, human; settings: for Emax: Homo sapiens; for HIT−CALL: tcpl plot AEID3093, COFF 20.3
Description: The total test chemical incubation period was 48 h.
(Supplementary Materials).

[3] = tested on: SOX17 in H9 human ESC line; settings: SOX17 half-maximal inhibition concentration; read-out: hPST IC50; cited from earlier work
H9 human ESC line = settings: cited from earlier work
[4] = cited from earlier work; for Development Toxicant Classification: Table S2; for Classification: developmental toxicant classification (Teratogen / Non-Teratogen) of reference and training chemicals, ref DOI per chemical: 10.1093/toxsci/kft239, 10.1093/toxsci/kfaa014, 10.1177/026119290203000204, 10.1038/s41598-020-59542-x; for DT Class.: developmental toxicant classification, chemicals common with hPST
[5] = tested on: SOX2 (ectoderm and pluripotency marker) in RUES2-GLR cells; assay: DevTox GLR-Endo assay: increase in percent SOX2-positive cells (AEID 3095, Sox2_up); settings: for AC50 / Emax: Homo sapiens; for AC50: read-out: ga (winning model); for Emax: read-out: tp (winning model); for MAX_MEAN: tcpl plot AEID3095, maximum mean response; for MAX_MED: tcpl plot AEID3095, maximum median response;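 for all read-outs here: cells exposed to test chemicals for 48 h in total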
Description: RUES2-GLR cells were seeded 24 h prior to differentiation initiation into vitronectin-coated 384-well CellCarrier Ultra plates (10.6 mm^2/well) (Perkin Elmer, Waltham, MA, USA). Vitronectin (0.5 µg/cm^2)-coated plates were prepared and stored at 4 °C, wrapped in parafilm, for less than seven days and incubated at room temperature for one hour prior to cell seeding. […] Cells were dispensed into 20 µL coating solution using a Certus FLEX Micro Dispenser (Fritz Gyger, Gwatt, Switzerland) with a 0.45 µm valve to a final volume of 100 µL and density of 2.8 × 10^3 cells per well.
Following a 24 h post-seeding incubation period (Time = 0 h) (Figure 3A), directed endoderm differentiation was initiated with the PSC Definitive Endoderm Induction kit (Gibco, Waltham, MA, USA). […] A target dilution series (0.002–200 µM) was generated by dispensing variable nanoliter volumes of test chemical and backfilling with a complementary volume of DMSO using Echo Cherry Pick software (v.1.6.2). Wells were backfilled with 50 µL of induction medium using a Certus FLEX Micro Dispenser with 0.45 µm valves. Test compound treatment plates were mixed on a Multi-Microplate Genie mixer at 700 rpm for 10 min and subsequently incubated for two hours in a humidified atmosphere at 37 °C with 5% CO2. Each chemical treatment (0 h–Medium A; 24 h–Medium B) were prepared the day of treatment. At 0 h, cell culture medium was aspirated from the assay plate at a rate of 1 µL/s and 40 µL of Medium A ± test chemical applied using a CyBio FeliX automated liquid handler (Analytik Jena, Jena, Germany). At 24 h, conditioned cell culture medium was aspirated and 40 µL of Medium B ± test chemical was applied. At 48 h, cells were prepared for high-content image acquisition by fixation and nuclear staining. The total test chemical incubation period was 48 h. For fixation, a 4% paraformaldehyde (PFA) solution was achieved by adding 40 µL of 8% PFA directly to cell culture medium using a CyBio FeliX liquid handler. […] Following an additional 30 min incubation period at room temperature, staining solution was aspirated, 50 µL of DPBS was added, and plate sealed with MicroAmp Optical Adhesive Film (Applied Biosystems, Waltham, MA, USA).
Images were acquired within 12 h post-fixation using an Opera Phenix High-Content Screening System (Perkin Elmer, Waltham, MA, USA). […] Cell identification and mean biomarker fluorescent intensities were calculated using Harmony image analysis software (Perkin Elmer, Waltham, MA, USA). Cell nuclei were identified using the object classifying algorithm C of the software with border objects excluded using the “Remove Border Objects” feature. Mean cell biomarker intensity statistics were gathered from each object and exported for further analysis using a custom script in Python version 3.7.4 [61] […] For each plate, pluripotent-negative control wells were used to establish baseline intensity values and a cutoff threshold for determining SOX17 and BRA biomarker-positive cells. Endoderm differentiated positive control wells were used to establish baseline intensity values and a cutoff threshold for SOX2-positive cells. Cells with a mean intensity five times the baseline median absolute deviation (5*bmad) above the median cell intensity for plate-based control population technical replicates were considered positive. Well-based cell counts, reflected by the sum of total counted objects from all fields, were used to calculate the percent responders for each respective biomarker and evaluate cytotoxicity. Well-level results were exported for data modeling in the ToxCast Pipeline.
The ToxCast Pipeline R package (tcpl v.2.0.2) was used to normalize, fit, and qualify concentration-response screening data [63].

[6] = Homo sapiens, 48 h, read-out: DevTox-GLR Endo AC50 (µM)
[7] = Homo sapiens, read-out: DevTox % Max Inhibition
[8] = Homo sapiens, read-out: MAX_MEAN
[9] = Homo sapiens, read-out: MAX_MED
[10] = Homo sapiens, read-out: ga (winning model)
[11] = Homo sapiens, read-out: tp (winning model)
[12] = tcpl plot AEID3093, maximum mean response, read-out: MAX_MEAN
[13] = tcpl plot AEID3093, maximum median response, read-out: MAX_MED
[14] = cytotoxicity half-maximal concentration
[15] = Homo sapiens, 48 h, read-out: DevTox-GLR Endo AC50 (µM), SOX17 half-maximal activity concentration, 48 h exposure
[16] = Homo sapiens, read-out: ga (winning model), tcpl plot AEID3094, gain parameter of winning curve fit (log concentration, µM axis), hit calls only (converted)
[17] = RUES2-GLR cells under directed endoderm differentiation

SMILES	Emax [1, 7] [%]	Emax [1, 8] [%]	Emax [1, 9] [%]	Emax [1, 11] [%]	Hit Call [1]	DevTox ACC ([1]; 48 h exposure) [µM]	HIT−CALL [1]	Emax (RUES2-GLR cells) [%]	Emax [2, 12] [%]	HIT−CALL [2]	IC50 [3] [µM]	hPST TC50 (H9 human ESC line; [14]) [µM]	hPST TC50 (H9 human ESC line; hPST cytotoxicity) [µM]	Development Toxicant Classification [4]	Classification [4]	DT Class. [4]	AC50 [5] [µM]	Emax [5] [%]	MAX_MEAN [5] [Percent Activity]	MAX_MED [5] [Percent Activity]	also measured
NC(=O)c1ccc(N)nc1 [6-Aminonicotinamide, 6−aminopyridine−3−carboxamide]	101	101	101	101	Positive	12.5605	1	89.9	2.7	0	7	8	8	Positive	Teratogen	Pos	309	9.6	4.77	4.39	AC50 [1, 6]: 16.6 µM; AC50 [1, 10]: 16.6 µM; SOX17 ACC relative to cytotoxic concentration (in words) ([1]; training set, ACC versus cell count ACC): below cytotoxic concentrations; CC50 (in vitro): 23.9 µM; Cell Count ACC (RUES2-GLR cells; Table S2, 48 h exposure): 20.3443 µM; Emax [2, 13]: 3%
Cc1c2oc3c(C)ccc(C(=O)N[C@@H]4C(=O)N[C@H](C(C)C)C(=O)N5CCC[C@H]5C(=O)N(C)CC(=O)N(C)[C@@H](C(C)C)C(=O)O[C@@H]4C)c3nc-2c(C(=O)N[C@@H]2C(=O)N[C@H](C(C)C)C(=O)N3CCC[C@H]3C(=O)N(C)CC(=O)N(C)[C@@H](C(C)C)C(=O)O[C@@H]2C)c(N)c1=O [Actinomycin D] (I: T[dV]P[Sar][NMeV] / II: T[dV]P[Sar][NMeV]; ester I:1-I:C, II:1-II:C; linker I:N-II:N via Actinocin(9to1))	101	102	101	101	Positive	2.881e-05	1	96	–	0	< 0.01	<0.01	< 0.01	Positive	Teratogen	Pos	0.1	24	20.2	20.2	SOX17 ACC relative to cytotoxic concentration (in words) [1]: below cytotoxic concentrations; AC50 [1, 6]: 3.7e-05 µM; AC50 [1, 10]: 3.63e-05 µM; CC50 (in vitro): 0.00048 µM; Cell Count ACC (RUES2-GLR cells; Table S2, 48 h exposure): 0.0003574 µM; Emax ([2]; read-out: MAX_MEAN): 6.35%; Emax ([2]; read-out: MAX_MED): 3.62%
Cc1nc(Nc2ncc(C(=O)Nc3c(C)cccc3Cl)s2)cc(N2CCN(CCO)CC2)n1 [Dasatinib]	102	102	102	102	Positive	0.3299	1	96	5.98	0	< 1	<1	< 1	Positive	Teratogen	Pos	148	85.8	63.7	64.4	AC50 [1, 15]: 0.72 µM; AC50 [1, 16]: 0.721 µM; CC50 at 48 h (in vitro): 0.05 µM; Cell Count ACC (RUES2-GLR cells; human, 48 h): 0.005325 µM; Emax [2, 13]: 3.77%
c1cc(-c2cnn3cc(-c4ccc(OCCN5CCCCC5)cc4)cnc23)ccn1 [Dorsomorphin]	99.6	99.4	99.6	114	Positive	8.65	1	95.1	9.04	0	0.3	2.4	2.4	Positive	Teratogen	Pos	10.7	38.7	16.8	17	AC50 [1, 15]: 17.1 µM; AC50 [1, 16]: 17 µM; CC50 at 48 h (in vitro): 16.7 µM; Cell Count ACC (RUES2-GLR cells; human, 48 h): 6.307 µM; Emax [2, 13]: 8.93%
COc1ccc2nc([S@@+]([O-])Cc3ncc(C)c(OC)c3C)[nH]c2c1 [Esomeprazole]	101	101	101	123	Positive	12.9286	1	94	0.101	0	32	101	101	Negative	Non-Teratogen	Neg	69.2	17.4	23.9	21.6	SOX17 ACC relative to cytotoxic concentration (in words) [1]: below cytotoxic concentrations; hit call designation (in words) ([1]; DevTox GLR-Endo prediction against developmental toxicant classification): false positive; AC50 [1, 15]: 34 µM; AC50 [1, 16]: 33.9 µM; Emax ([1]; Homo sapiens, read-out: maximum observed effect level class (% max inhibition)): 80 to 100%; AC50 ([1]; read-out: DevTox-GLR Endo AC50, SOX17 half-maximal activity concentration, 48 h exposure): 33.8 µM; CC50 at 48 h (in vitro; [17]): 38.5 µM; Cell Count ACC (RUES2-GLR cells; human, 48 h): 28.1982 µM; Emax [2, 13]: 1.23%
CNC(=O)c1cc(Oc2ccc(NC(=O)Nc3ccc(Cl)c(C(F)(F)F)c3)cc2)ccn1 [Sorafenib]	102	102	102	101	Positive	0.5004	1	95.8	8.73	0	< 2	<2	< 2	Positive	Teratogen	Pos	0.748	8.9	13.6	11.9	AC50 [1, 15]: 0.62 µM; AC50 [1, 16]: 0.618 µM; CC50 at 48 h (in vitro; [17]): 0.61 µM; Cell Count ACC (RUES2-GLR cells; Table S2, 48 h exposure): 0.4993 µM; Emax [2, 13]: 9.19%
CCN(CC)CCNC(=O)c1c(C)[nH]c(/C=C2\C(=O)Nc3ccc(F)cc32)c1C [Sunitinib]	102	102	102	101	Positive	0.5184	1	97.7	0.538	0	2.8	3.6	3.6	Positive	Teratogen	Pos	5.41	6.74	3	3.23	SOX17 ACC relative to cytotoxic concentration (in words) [1]: below cytotoxic concentrations; AC50 [1, 15]: 0.63 µM; AC50 [1, 16]: 0.628 µM; CC50 at 48 h (in vitro; [17]): 1.26 µM; Cell Count ACC (RUES2-GLR cells; Table S2, 48 h exposure): 0.6087 µM; Emax [2, 13]: 0.596%
COc1cc2c(Nc3ccc(Br)cc3F)ncnc2cc1OCC1CCN(C)CC1 [Vandetanib]	102	102	102	101	Positive	4.123	1	98.3	7.33	0	3.5	4.4	4.4	Positive	Teratogen	Pos	7.23	23.1	10.9	10.8	AC50 [1, 15]: 4.9 µM; AC50 [1, 16]: 4.91 µM; CC50 at 48 h (in vitro; [17]): 4.32 µM; Cell Count ACC (RUES2-GLR cells; Table S2, 48 h exposure): 2.124 µM; Emax [2, 13]: 9.78%
